# Molecular target: T1, human vasopressin V2 receptor subtype (Homo sapiens, UniProt P30518)
# T1 construct: host or cells: CHO cells, stably transfected (pZeoSV vector); membranes
# Test: Vasopressin binding in CHO cell membranes expressing human vasopressin V2 subtype receptors ([3H]arginine vasopressin)
# Settings: for inhibition at 0.1 µM: 100 nM, values without parentheses
# Text: Vasopressin Binding in Chinese Hamster Ovary Cell Membranes Expressing Human Vasopressin V2 Subtype Receptors
# Chinese Hamster Ovary (CHO) cells stably transfected with the human V2 subtype receptors were obtained from M. Thibonnier, Case Western Reserve University School of Medicine, Cleveland, Ohio.
# A. Passaging and Amplification of Cells:
# CHO cells transfected with the human vasopressin V2 subtype receptors obtained from M. Thibonnier (pZeoSV vector) are allowed to grow to confluency (approx. >90%) in T-150 flasks under sterile conditions, in a cell culture medium of F-12 Nutrient Mixture (HAM) with L-glutamine (Gibco Cat. #11765-054) containing 15 mM HEPES (Gibco Cat. #15630-080), 1% antibiotic/antimycotic (add 5 mL 100×, Gibco Cat. #15240-062 per 500 mL F-12), 250 μg/mL Zeocin (add 1.25 mL of 100 mg/mL Invitrogen R-250-01 per 500 mL F-12) and 10% Fetal Bovine Serum (Qualified, heat inactivated, Gibco Cat. #16140-063). The medium is removed by aspiration and the cells washed with 10 mL of Hank's Balanced Salt solution (Gibco Cat. #14175-095). The salt solution is removed by aspiration and the cells trypsinized with 5 mL of trypsin-EDTA (0.05% trypsin, 0.53 mM EDTA-4Na, Gibco Cat. #25300-070) for 1 min. The trypsin is removed by aspiration and the cells dislodged by tapping. Cell Culture medium (e.g. 30 mL for 1:30 split) is immediately added and mixed well to inactivate trypsin. 1 mL of detached cells is added to new culture flasks containing fresh Cell Culture medium (e.g. into 25 mL per T-150 flask), and mixed gently. The cells are incubated at 37° C. in 5% CO2. The medium is changed at 3 to 4 day interval (or as appropriate). The cells grow to confluency (approx. >75%–95%) within 7–8 days. All steps are done under sterile conditions. B. Membrane Preparation: The cells are washed twice gently with Hank's Balanced Salt solution (e.g. use 10 mL per T-150 flask). The excess solution is removed and the cells bathed for 15–30 min. in an enzyme-free Cell Dissociation Buffer (e.g. use 8 mL Hank's Based, Gibco Cat. # 13150-016 per T-150 flask) until cells are loosened. The contents are transferred to centrifuge tubes (50 mL size) kept in ice bath. All subsequent steps are done at 4° C. The tubes are centrifuged at 300×g for 15 min (1380 rpm on SORVAL, Model RT6000D, using rotor for 50 mL tubes). The supernatant is discarded and the cells suspended in homogeneizing buffer (10 mM Tris-HCl containing 0.25 M sucrose and 1 mM EDTA, pH 7.4) ensuring that the volume of the buffer is about ten times the volume of the cell pellet. The cells are pooled into a centrifuge tube (50 mL) and homogenized with Polytron at setting 6 for 10 sec. The homogenate is transferred into a Potter-Elvjehm homogeneizer and homogenized with 3 strokes. The homogenate is centrifuged at 1500×g for 60 min at 4° C. (3100 rpm using SORVAL, model RT6000D, using rotor for 50 mL tubes). The pellet is discarded. The supernatant is centrifuged at 100,000×g for 60 min. at 4° C. (Beckman L8-80M ultracentrifuge; spin at 37,500 rpm with rotor type 70 Ti for 50 mL tubes; 38,000 rpm with type 80Ti for 15 mL tubes; or 35,800 rpm with rotor type 45Ti). The supernantant is discarded and the pellet suspended in 3 to 4 mL of Tris buffer (50 mM TRIS-HCl, pH 7.4). The protein content is estimated by the Bradford or Lowry method. The volume of the membrane suspension is adjusted with the membrane buffer (50 mM Tris-HCl containing 0.1% BSA and 0.1 mM PMSF) to give 3.0 mg/mL (or as appropriate) of protein. The membranes are aliquoted and stored at −70° C. C. Radioligand Binding Assay:
# In wells of a 96-well format microtiter plate, is added 90, 110 or 130 μL (to make up a final volume of 200 μL) of assay buffer containing 50 mM of Tris-HCl (pH 7.4), […], 1 mg % aprotinin, 1 mg % leupeptin, 2 mg % 1,10-phenanthroline, 10 mg % trypsin inhibitor, and 0.1 mM PMSF. The inhibitors are added on the day of the experiment. […]
# T1 sequence (P30518 whole entry): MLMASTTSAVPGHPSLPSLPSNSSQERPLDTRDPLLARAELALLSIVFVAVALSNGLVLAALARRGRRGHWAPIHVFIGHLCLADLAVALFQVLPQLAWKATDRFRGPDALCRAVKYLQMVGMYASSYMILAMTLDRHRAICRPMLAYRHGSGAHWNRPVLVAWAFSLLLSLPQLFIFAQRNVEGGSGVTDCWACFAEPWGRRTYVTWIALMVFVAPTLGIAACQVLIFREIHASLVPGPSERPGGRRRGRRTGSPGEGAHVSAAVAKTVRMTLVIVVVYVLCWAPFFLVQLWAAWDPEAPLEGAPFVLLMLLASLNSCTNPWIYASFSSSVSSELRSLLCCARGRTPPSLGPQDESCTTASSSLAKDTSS
inhibition at 0.1 µM [%],IC50 (values in parentheses) [nM],SMILES
2,–,"CC1=C(c2ccc(C(=O)N3Cc4cccn4Cc4ccccc43)cc2C)CCCC1O (racemic) [Example 5, (10,11-Dihydro-5H-pyrrolo[2,1-c][1,4]benzodiazepin-10-yl)-[4-(3-hydroxy-2-methyl-cyclohex-1-en-1-yl)-3-methyl-phenyl]-methanone]"
–,66,"Cc1cc(C(=O)N2Cc3cccn3Cc3ccccc32)ccc1C1=CCCc2ccccc21 [Example 3, (10,11-Dihydro-5H-pyrrolo[2,1-c][1,4]benzodiazepin-10-yl)-[4-(3,4-dihydro-naphthalen-1-yl)-3-methyl-phenyl]-methanone]"
58,–,"CC1=C(c2ccc(C(=O)N3Cc4cccn4Cc4ccccc43)cc2)CCCC1=O [Example 26, 3-[4-(10,11-Dihydro-5H-pyrrolo[2,1-c][1,4]benzodiazepine-10-carbonyl)-phenyl]-2-methyl-cyclohex-2-en-1-one]"

# — US7022699B2, “Cyclohexenyl phenyl diazepines vasopressin and oxytocin receptor modulators” (Wyeth, priority 2001, dated 2006)
